Key:
[1] = tested on: mouse IL-2 mRNA in primary LN cells; assay: Validation: mouse IL-2 mRNA by real-time PCR in LN cells of GA-immunized SJL/J mice, three experiments (Example IV); format: cell-based; conditions: for IL-2 mRNA Fold Change: normalized to GAPDH; for induction of IL-2 mRNA: 20 μg/mL GA, 6 hours
Description: Three experiments were conducted using one batch of GA (Mylan GMA). The primary LN cells were stimulated by incubation with 6 concentrations (0.3 to 20 μg/mL) of the GA for 6 hours at 37° C. Total RNA was isolated from LN cells stimulated with GA or controls. cDNA was synthesized from the RNA and the mRNA levels of seven mouse cytokines, IL-2, IL-4, IL-5, IL-10, IL-13, interferon (IFN)-γ and tumor necrosis factor (TNF)-α, were quantitatively measured by a real-time PCR method.
Female SJL/J mice at 8-9 weeks of age were immunized by injection into four footpads using a 1 mL syringe with a 27-G, ½-inch needle. Each mouse received a total injection volume of 0.1 mL of GMA emulsified in CFA (about 10 μL into each of the front footpads and 40 μL into each of the hind footpads). Animals were immunized on Day 0. After injection, animals were placed back in their cages and housed ≤6 animals per cage.
Immunized animals were sacrificed by cervical dislocation on Day 10 following immunization. […] After centrifugation at about 200×g for 10 minutes at 4° C., the cell pellet was re-suspended in 40 mL of DCCM-1 medium for cell counting. A Trypan blue exclusion method was used to determine the cell density of viable cells in the suspension. After cell counting, the LN cells were suspended in enriched DCCM-1 medium at density of 7.5×10^6 cells/mL. LN cells (0.12 mL) were plated into each well of 96-well tissue culture plates.
Dilutions of GA (Mylan GMA) were prepared using enriched DCCM-1 medium as the diluent. GA dilutions (0.12 mL) were added in the assigned wells of 96-well tissue culture plates. The same volume of LN cells (0.12 mL) isolated from immunized animals was added to the assigned wells. A positive control and a negative control were always performed in the same assay by treating LN cells with 2.5 μg/mL ConA and 10 μg/mL MBP, respectively. The LN cells with mock stimulation protocols (enriched DCCM-1 medium) were used to monitor the background mRNA level of a cytokine. The plates were incubated at 37° C. in a humidified 5% CO2 incubator for 6 hr.
At the end of incubation time, culture medium from stimulated cells was removed by aspiration and the cells were lysed using Qiagen or Promega lysis buffer. The lysate was transferred to an RNeasy Mini column (Qiagen) or wells of the SV 96 Binding Plate (Promega) for RNA isolation and cDNA synthesis. All tested samples were run in triplicate.
The SV 96 Total RNA Isolation System (Promega; Cat. No. Z3505) was used for total RNA isolation. Assay procedures were carried out according to each manufacturer's protocol. RNA samples were stored at −70° C. until use. […] The assay procedure was carried out according to the manufacturer's protocol.
The plate was centrifuged at 2000 rpm for 2 minutes at 4° C. to spin down the contents and eliminate air bubbles. Samples were prepared and run in a 96-well plate using a Life Technologies Real-Time PCR system (previously Applied Biosystems; Model No. 7500) according to the manufacturer's recommendation. The mix for the reference gene was prepared in the same way using the reference gene primer.
A relative quantitation method was used to analyze changes in mIL-2, mIL-4, mIL-5, mIL-10, mIL-13, mIFN-γ and TNF-α expression in GA treated samples relative to the untreated control (Enriched DCCM-1 treated) samples using the following program:
Levels of mouse cytokine amplicons were normalized to an internal probe level (GAPDH) from the same samples. The following equations were used to calculate the relative increase in response to GA stimulation compared to the control sample (Enriched DCCM1 sample): […]

[2] = tested on: mouse IL-2 mRNA in primary LN cells; assay: Mouse IL-2 mRNA in LN cells of Copaxone-, GMA- or mannitol-immunized SJL/J mice stimulated with Copaxone and GMA lots, normalized to Actβ or GAPDH (Example V); format: cell-based
Description: A real-time polymerase chain reaction method was used to measure the expression of cytokine mRNA in GA-stimulated LN cells from GA-immunized SJL/J mice. Normalization of expression with two different housekeeping genes, GAPDH and β-actin, was tested.
Each group consisted of six female SJL/J mice immunized by injection in all four footpads with a total dose of 250 μg of one lot of GA, or mannitol and no GA. Three Copaxone batches and three GMA batches were used to immunize the mice. CFA was included in both GA and mannitol immunizations. Ten days following immunization, LN cell samples isolated from the immunized mice were each stimulated with a concentration of a Copaxone lot and a GMA lot. A positive control of 2.5 μg/mL ConA treated LN cells and a negative control of 10 μg/mL MBP treated cells were included in each group.
Therefore, the Q-PCR analysis was repeated on the samples, measuring levels of IL-2, IL-4, IL-5, and IL-13, using both GAPDH and β-actin as reference gene.

“Concanavalin A [ConA, reference compound]” was tested, and the “IL-2 mRNA Fold Change” value ([1]; Experiment 1, 2.5 μg/mL) was 147.1 fold, the “IL-2 mRNA Fold Change” value ([1]; Experiment 2, 2.5 μg/mL) was 72.0 fold and the “IL-2 mRNA Fold Change” value ([1]; Experiment 3, 2.5 μg/mL) was 188.6 fold. For the same molecule, the “IL-2 mRNA Fold Change” value ([2]; Group 3 (mice immunized with GA-M2 Mylan GMA), 2.5 μg/mL, normalized to Actβ) was 123.4 fold, the “IL-2 mRNA Fold Change” value ([2]; Group 3 (mice immunized with GA-M2 Mylan GMA), 2.5 μg/mL, normalized to GAPDH) was 149.4 fold and the “IL-2 mRNA Fold Change” value ([2]; Group 4 (mice immunized with GA-C2 Copaxone), 2.5 μg/mL, normalized to Actβ) was 105.0 fold. For the same molecule, the “IL-2 mRNA Fold Change” value ([2]; Group 4 (mice immunized with GA-C2 Copaxone), 2.5 μg/mL, normalized to GAPDH) was 84.8 fold.

With “L-glutamic acid polymer with L-alanine, L-lysine and L-tyrosine, acetate (salt) [GA]” the “induction of IL-2 mRNA” value ([1]; SJL/J, Exp 1) was 31.7 fold, the “induction of IL-2 mRNA” value ([1]; SJL/J, Exp 2) was 27.8 fold and the “induction of IL-2 mRNA” value ([1]; SJL/J, Exp 3) was 42.0 fold. The “induction of IL-2 mRNA (in words)” value ([1]; SJL/J, different concentrations of GA vs unstimulated LN cells) was “robust induction” and the IL-2 cross-potency ([2]; Copaxone: C/A, GMA: B/D, 5 μg/mL) was 108%.

B1: MBP: myelin basic protein, a negative control (protein, UniProt P02686 1-304, looked up)
Myelin basic protein: MGNHAGKRELNAEKASTNSETNRGESEKKRNLGELSRTTSEDNEVFGEADANQNNGTSSQDTAVTDSKRTADPKNAWQDAHPADPGSRPHLIRLFSRDAPGREDNTFKDRPSESDELQTIQEDSAATSESLDVMASQKRPSQRHGSKYLATASTMDHARHGFLPRHRDTGILDSIGRFFGGDRGAPKRGSGKDSHHPARTAHYGSLPQKSHGRTQDENPVVHFFKNIVTPRTPPPSQGKGRGLSLSRFSWGAEGQRPGFGYGGRASDYKSAHKGFKGVDAQGTLSKIFKLGGRDSRSGSPMARR
In the case of B1, the “IL-2 mRNA Fold Change” value ([1]; Experiment 1, 10 μg/mL) is reported as 1.0 fold, the “IL-2 mRNA Fold Change” value ([1]; Experiment 2, 10 μg/mL) is reported as 0.9 fold and the “IL-2 mRNA Fold Change” value ([1]; Experiment 3, 10 μg/mL) is reported as 0.8 fold. For the same molecule, the “IL-2 mRNA expression level in response to MBP treatment” value ([1]; SJL/J, MBP 10 μg/mL, all PCR runs) was at most 2 fold, the “IL-2 mRNA Fold Change” value ([2]; Group 3 (mice immunized with GA-M2 Mylan GMA), 10 μg/mL, normalized to Actβ) was 1.2 fold and the “IL-2 mRNA Fold Change” value ([2]; Group 3 (mice immunized with GA-M2 Mylan GMA), 10 μg/mL, normalized to GAPDH) was 0.7 fold. For the same molecule, the “IL-2 mRNA Fold Change” value ([2]; Group 4 (mice immunized with GA-C2 Copaxone), 10 μg/mL, normalized to Actβ) was 0.8 fold and the “IL-2 mRNA Fold Change” value ([2]; Group 4 (mice immunized with GA-C2 Copaxone), 10 μg/mL, normalized to GAPDH) was 1.3 fold.
